Reference: patent US12215106B2, “Pharmaceutical compounds and therapeutic methods” (RUTGERS, THE STATE UNIVERSITY OF NEW JERSEY, priority 2018, dated 2025)
Structures can show the parent of a compound that is named as a salt. Where two headings read alike, the source gives them in different places.

Assay: Plasma pharmacokinetics and brain distribution after single IV, IP and oral administration
Assay type: in vivo
Conditions: for Kp at 0.08 h / Kp at 0.35 h / Kp at 1 h / Kp at 3 h / Kp at 6 h: read-out: Brain-to-plasma ratio
Protocol: (§1) The objective of this study was to investigate the plasma pharmacokinetics and brain distribution of Compound (14 in male C57BL/6 mice following a single intravenous, intraperitoneal and oral administration. A group of sixty-three male mice were divided into three groups (Group 1: 2 mg/kg/IV; Group 2: 10 mg/kg/IP and Group 3: 10 mg/kg/PO) with each group comprising of twenty-one mice.
Animals in Group 1 were administered intravenously with Compound 15 solution formulation in 5% NMP, 5% Solutol HS-15, 30% PEG-400 and 60% Captisol (20% w/v) at 2 mg/kg dose. […] Considering mortality intravenous dose was reduced to 2 mg/kg.
Animals in Group 2 and 3 were administered with Compound 15 solution formulation in 5% NMP, 5% Solutol HS-15, 30% PEG-400 and 60% Captisol (20% w/v) at a dose of 10 mg/kg by intraperitoneal and oral route respectively.
(§2) Blood samples (approximately 60 μL) were collected under light isoflurane anesthesia from retro orbital plexus from a set of three mice at 0.08, 0.35, 1, 3, 6, 12 and 24 hr. Plasma samples were separated by centrifugation of whole blood and stored below −70±10° C. until bioanalysis. Immediately after collection of blood, brain samples were collected from set of three mice at each time point. Brain samples were homogenized using ice-cold phosphate buffer saline (pH-7.4) in a ratio of 2 (buffer):1(brain); and homogenates were stored below −70±10° C. until analysis. Total homogenate volume was three times the brain weight. All samples were processed for analysis by protein precipitation using acetonitrile and analyzed with fit-for-purpose LC/MS/MS method (LLOQ2.00 ng/mL for plasma and 3.00 ng/g for brain). Pharmacokinetic parameters were calculated using the non-compartmental analysis tool of Phoenix WinNonlin® (Version 7.0). Pharmacokinetic parameters of Compound 15 are summarized below.
as §1, with “Compound 16” for “Compound (14”, “1: 10” for “1: 2”
Animals in Group 1 were administered intravenously with Compound 16 solution formulation in 5% NMP, 5% Solutol HS-15 and 90% normal saline at 10 mg/kg dose.
Animals in Group 2 and 3 were administered with Compound 16 solution formulation in 5% NMP, 5% Solutol HS-15 and 90% normal saline at a dose of 10 mg/kg by intraperitoneal and oral route respectively.
as §2, with “(LLOQ—1.00” for “(LLOQ2.00”, “16” for “15”
as §1, with “17” for “(14”, “mice. […]” for “mice.”

[1] = male, C57BL/6, mouse, brain, ip, 10 mg/kg, IP 10 mg/kg
[2] = male, C57BL/6, mouse, brain, po, 10 mg/kg, PO 10 mg/kg
[3] = male, C57BL/6, mouse, in vivo, ip, 10 mg/kg
[4] = male, C57BL/6, mouse, in vivo, ip, 10 mg/kg, 12 h
[5] = male, C57BL/6, mouse, in vivo, ip, 10 mg/kg, 24 h
[6] = male, C57BL/6, mouse, in vivo, ip, 10 mg/kg, Brain concentration, individual animal
[7] = male, C57BL/6, mouse, in vivo, ip, 10 mg/kg, Mean brain conc.
[8] = male, C57BL/6, mouse, in vivo, ip, 10 mg/kg, Mean plasma conc.
[9] = male, C57BL/6, mouse, in vivo, ip, 10 mg/kg, Plasma concentration, individual animal
[10] = male, C57BL/6, mouse, in vivo, iv, 2 mg/kg
[11] = male, C57BL/6, mouse, in vivo, iv, 2 mg/kg, 3 h
[12] = male, C57BL/6, mouse, in vivo, iv, 2 mg/kg, 6 h
[13] = male, C57BL/6, mouse, in vivo, iv, 2 mg/kg, 12 h
[14] = male, C57BL/6, mouse, in vivo, iv, 2 mg/kg, 24 h
[15] = male, C57BL/6, mouse, in vivo, iv, 2 mg/kg, Brain concentration, individual animal
[16] = male, C57BL/6, mouse, in vivo, iv, 2 mg/kg, Mean brain conc.

[2H]C1([2H])Oc2ccc(Nc3nc(-c4c(C)nc5ccccn45)cs3)cc2O1 [Compound 17, N-(benzo[d][1,3]dioxol-5-yl-2,2-d2)-4-(2-methylimidazo[1,2-c]pyridin-3-yl)thiazol-2-amine hydrochloride]
Oral bioavailability, % F (PO 10 mg/kg, AUClast considered, hydrochloride, 10 mg/kg): ~100% | AUClast (brain, IP 10 mg/kg): 360.87 ng·h/g | AUClast (brain, IV 2 mg/kg): 97.08 ng·h/g | AUCinf (brain, PO 10 mg/kg): 204.06 ng·h/g | AUClast (brain, PO 10 mg/kg): 171.84 ng·h/g | Kp at 0.08 h [1]: 0.61 | Kp at 0.35 h [1]: 0.52 | Kp at 1 h [1]: 0.39 | Kp at 3 h [1]: 1.1 | Kp at 6 h [1]: 0.59 | Kp (male, C57BL/6, mouse, brain, ip, 10 mg/kg, IP 10 mg/kg, read-out: brain-to-plasma ratio, range over time): 0.39 to 1.1 | Kp (male, C57BL/6, mouse, brain, iv, 2 mg/kg, IV 2 mg/kg, read-out: brain-to-plasma ratio, range over time): 0.18 to 4.03 | Kp at 0.08 h [2]: 0.33 | Kp at 0.35 h [2]: 0.32 | Kp at 1 h [2]: 0.48 | Kp at 3 h [2]: 0.32 | Kp at 6 h [2]: 0.23 | Kp (male, C57BL/6, mouse, brain, po, 10 mg/kg, PO 10 mg/kg, read-out: brain-to-plasma ratio, range over time): 0.23 to 0.48 | Kp (male, C57BL/6, mouse, brain, po, 10 mg/kg, summary data, read-out: Brain to plasma ratio following a single oral dose): 0.48 | Brain concentrations quantifiable up to [3]: up to 6 hr | Plasma concentrations quantifiable up to [3]: up to 6 hr | Brain concentration, individual animal [4]: 0.00 ng/g | Plasma concentration, individual animal [4]: 0.00 ng/mL | Brain concentration, individual animal [5]: 0.00 ng/g | Plasma concentration, individual animal [5]: 0.00 ng/mL | concentration at 0.08 h [6]: 285 ng/g | concentration at 0.35 h [6]: 291 ng/g | concentration at 1 h [6]: 65.9 ng/g | concentration at 12 h [6]: 0 ng/g | concentration at 24 h [6]: 0 ng/g | concentration at 0.35 h [7]: 236 ng/g | concentration at 1 h [7]: 90.3 ng/g | concentration at 3 h [7]: 82 ng/g | concentration at 6 h [7]: 26 ng/g | concentration at 12 h [7]: 0 ng/g | concentration at 24 h [7]: 0 ng/g | concentration at 0.35 h [8]: 458 ng/mL | concentration at 1 h [8]: 232 ng/mL | concentration at 3 h [8]: 74.9 ng/mL | concentration at 6 h [8]: 43.7 ng/mL | concentration at 12 h [8]: 0 ng/mL | concentration at 24 h [8]: 0 ng/mL | concentration at 0.08 h [9]: 530 ng/mL | concentration at 0.35 h [9]: 478 ng/mL | concentration at 1 h [9]: 223 ng/mL | concentration at 12 h [9]: 0 ng/mL | concentration at 24 h [9]: 0 ng/mL | Brain concentrations quantifiable up to [10]: up to 1 hr | Vss, fold more than normal volume of total body water (0.7 L/kg) [10]: 6.3 fold | Brain concentration, individual animal [11]: 0.00 ng/g | Plasma concentration, individual animal [11]: 0.00 ng/mL | Brain concentration, individual animal [12]: 0.00 ng/g | Plasma concentration, individual animal [12]: 0.00 ng/mL | Brain concentration, individual animal [13]: 0.00 ng/g | Plasma concentration, individual animal [13]: 0.00 ng/mL | Brain concentration, individual animal [14]: 0.00 ng/g | Plasma concentration, individual animal [14]: 0.00 ng/mL | concentration at 0.08 h [15]: 44.7 ng/g | concentration at 1 h [15]: 17.1 ng/g | concentration at 3 h [15]: 0 ng/g | concentration at 6 h [15]: 0 ng/g | concentration at 12 h [15]: 0 ng/g | concentration at 24 h [15]: 0 ng/g | concentration at 0.08 h [16]: 44.9 ng/g | concentration at 0.35 h [16]: 180 ng/g | concentration at 1 h [16]: 13.8 ng/g | concentration at 3 h [16]: 0 ng/g
